For orientation: fraction unbound means the share of the substance not bound to proteins or other matrix.

A short description of series [1]: Plasma protein binding (equilibrium dialysis), mouse plasma. It counts as in vitro ADME, CD-1 mouse. The settings on record: male, CD-1, pH 7.4. The method, then:
(§1) Hepatocyte stability, plasma protein binding and cytochrome P450 assays were performed using standard procedures. Details can be found in Supplementary Methods. […]
reaction. Plates were incubated at 37°C and 50 µL aliquots were removed from the incubation mixture at 0, 10, 20, 40, 60 and 90 min and added to 2 volumes of methanol containing metoprolol (internal standard) to stop the reaction. Negative control incubations with inactivated cell l ysat e were incubat ed for 90 min. Positive controls were verapamil and umbelliferone. The termination plates were centrifuged at 2,500 rpm for 20 min at 4°C to precipitate the protein prior to LC -MS/MS analysis. In vitro h alf -life (t½) value was det ermined b y plotting the natural logarithm of the anal yte/ IS peak area ratios as a function of time, with the slope of the linear regression (k; - gradient) converted to in vitro t ½ v alue wher e t ½=0.693/k. […]
(§2) Plasma protein binding was assessed b y equilibrium dial ysis, utilizing the HT-dial ysis cell format with a cellulose semi- permeable membran e (molecular wei ght cut-off of 5000 Da).
(pH 7.4) and 100% mixed gender pooled human, pooled male CD -1 mouse or Sprague-Dawle y rat plasma. […] Samples were quantified using standard curves prepared in the equivalent matrix. The fraction unbound in plas ma (fu) was calculated us ing the followin g equ ation: […]

Series [2] can be described thus: Plasma protein binding (equilibrium dialysis), rat plasma. In kind it is in vitro ADME. The following applies: Sprague-Dawley, pH 7.4. The procedure:
as §1, §2
(pH 7.4) and 100% mixed gender pooled human, pooled male CD -1 mouse or Sprague-Dawle y rat plasma. The buffer solution was added to one s ide of the membrane and the plasma solution to the other side. Incubations were performed in duplicate for 16 h, at 37°C, in order to allow the compounds to reach equi librium. Haloperidol was incubated in parallel as the control compound for each speci es. At the end of the incubation time, samples were taken from both sides of the membrane. Following protein precipitation, the samples were anal yz ed b y LC-MS/MS using two sets of calibration standards for protein free (7 poi nts) and protein containi ng solutions (6 points). Samples were quantified using standard curves prepared in the equivalent matrix. The fraction unbound in plas ma (fu) was calculated us ing the followin g equ ation: […]

For the compound `CNC[C@@H](O)COc1ccc(Cl)c(-c2nc(-c3c(C)noc3C)c(C)c(N3CC4(CCN(C(=O)OC)CC4)C3)n2)c1` [EZM2302], the fraction unbound at 16 h, 5 µM is 0.46 in series [1] and 0.74 in series [2].

Source of the values: paper PMC5740082, “Identification of a CARM1 Inhibitor with Potent In Vitro and In Vivo Activity in Preclinical Models of Multiple Myeloma” (Scientific Reports, 2017).
